From patent EP2910557A1, “Enantiopure tetrasubstituted pyrrolidines as scaffolds for proteasome inhibitors and medicinal applications thereof” (Ikerchem, S.L., priority 2014, dated 2015) come the findings set out here.

Structures are written as SMILES.

Test in all cases: Cancer cell growth inhibition, 72 h treatment
Format in all cases: cell-based

Experiment [1] deals with NCI-H1650. As to conditions: Homo sapiens. The method, then:
(§1) Cell culture-based assays were used to evaluate the ability of compounds of the invention to inhibit cancer cell growth.
(§2) Cells were obtained from the American Type Culture Collection (ATCC) and the European Collection of Cell Cultures. Cells were thawed in their appropriate media plus supplements (see table below). Cells were passaged at confluence by washing once in HBSS cation-free followed by a 3 minutes incubation with trypsin ([0.5 µg/ml]/EDTA [0.2 µg/ml]) (Gibco-BRL, 15400054) solution in HBSS at 37°C (except non-adherent cell lines - hematologic), and transferred to their appropriate media plus supplements. Prior to seeding at defined cell concentration, cells were recovered in medium, centrifuged, taken up in medium and counted.
(§3) All treatments were performed in triplicate. Experiments were carried out in 96-well cell culture plates (Cultek) and the cell lines seeded at the density mentioned in the table above and cultured at 37°C with 5% CO2. After 24h, media were supplemented by 100 µl/well of diluted test compound at variable final concentrations and incubated for 72 hours. Then, AlamarBlue® Reagent (Biosource DAL1100) was added to each well and incubated at 37°C for 4 hours. Relative fluorescent intensity that correlates with the number of living cells was read in a Cytofluor plate reader (Millipore) at 535/590 nm (Excitation/emission). After reading the AlamarBlue® signal, the hexosaminidase activitity was measured according to the following protocol: medium was removed and cells were washed once with PBS. 60 µl of substrate solution (p-nitrophenol-N-acetyl-beta-D-glucosaminide 7.5 mM [Sigma N-9376], sodium citrate 0.1 M, pH 5.0, 0.25% Triton X-1 00) was added to each well and incubated at 37°C for 1-2 hours; after this incubation time, a bright yellow colour appears; then, plates could be developed by adding 90 µl of developer solution (Glycine 50 mM, pH 10.4; EDTA 5 mM), and absorbance was recorded at 405 nm.
(§4) Note: In all cases assays were performed in Alamar Blue with the exception of those indicated (* = Hexosaminidase assay)

In experiment [2] the test system is K562. The note with it: Homo sapiens, Hematologic K562, Alamar Blue. The method, then: as §1, §2, §3, §4
For orientation: Alamar Blue is a resazurin reagent that responds to reducing activity.

For experiment [3], the system named is HCT-116. As to conditions: Homo sapiens, Colon cancer HCT-116, Alamar Blue. The method, then: as §1, §2, §3, §4
Experiment [4] concerns CCRF-CEM. The note with it: Homo sapiens, Hematologic CCRF-CEM, Alamar Blue. The method, then: as §1, §2, §3, §4
Experiment [5] relates to HeLa. As to conditions: Homo sapiens, Cervical HeLa, Alamar Blue. The method, then: as §1, §2, §3, §4
Experiment [6] concerns T47D. The note with it: Homo sapiens, Breast cancer T47D. The method, then: as §1, §2, §3, §4
The subject of experiment [7] is NCI-H358. The note with it: Homo sapiens, Lung cancer NCI-H358, Alamar Blue. The method, then: as §1, §2, §3, §4
Experiment [8] has as its system U-87 MG. The note with it: Homo sapiens, Brain U-87 MG, Hexosaminidase assay (*). The method, then:
as §1, §2, §3, §4

For experiment [9], the system named is RWP-1. Here is the method: as §1, §2, §3, §4
Experiment [10] relates to RPMI-8226. The note with it: Homo sapiens, Multiple mieloma RPMI-8226, Alamar Blue. The method, then:
as §1, §2, §3, §4

Experiment [11] relates to MIA PaCa-2. As to conditions: Homo sapiens. The method, then:
as §1, §2, §3, §4

For experiment [12], the system named is Jurkat. The note with it: Homo sapiens, Hematologic Jurkat, Alamar Blue. Here is the method:
as §1, §2, §3, §4

The subject of experiment [13] is A549. The note with it: Homo sapiens. Here is the method: as §1, §2, §3, §4
The test system of experiment [14] is SW480. The note with it: Homo sapiens. Here is the method: as §1, §2, §3, §4
Experiment [15] concerns Daoy. As to conditions: Homo sapiens, Brain Daoy, Alamar Blue. Here is the method:
as §1, §2, §3, §4

For experiment [16], the system named is RCC 786-O. The note with it: Homo sapiens, 786-0, Renal RCC 786-O, Alamar Blue. The method, then: as §1, §2, §3, §4
For experiment [17], the system named is NCI-H1975. The note with it: Homo sapiens. Here is the method: as §1, §2, §3, §4
The test system of experiment [18] is PANC-1. The note with it: Homo sapiens, Pancreatic cancer PANC-1, Alamar Blue. Here is the method:
as §1, §2, §3, §4

Where [19] appears, read: Lung cancer NCI-H1650, Alamar Blue.
The mark [20] stands for this setting: Pancreatic cancer MIA PaCa-2, Alamar Blue.
Where [21] appears, read: Colon cancer SW480, Alamar Blue.
Where [22] appears, read: Lung cancer NCI-H1975, Alamar Blue.
The mark [23] stands for this setting: Pancreatic cancer RWP-1, Alamar Blue.
[24] abbreviates: Lung cancer NCI-H1650, Hexosaminidase assay (*).
[25] abbreviates: Lung cancer A549, Hexosaminidase assay (*).
Where [26] appears, read: Colon cancer SW480, Hexosaminidase assay (*).
The mark [27] stands for this setting: Lung cancer NCI-H1975, Hexosaminidase assay (*).

For orientation: EC50 means the concentration giving half of the maximal effect. A higher EC50 goes with weaker potency. `CC(C)C[C@H](NC(=O)[C@@H]1N[C@H](c2ccccc2)[C@@H]([N+](=O)[O-])[C@@H]1c1ccccc1)B(O)O` [Example 1, (R)-3-methyl-1-((2R,3R,4S,5R)-4-nitro-3,5-diphenylpyrrolidine-2-carboxamido)butylboronic acid]: the EC50 in experiment [1] (setting [19]) was 3300 nM; in experiment [2], 6300 nM; in experiment [3], 1900 nM; in [4], 670 nM; in [5], 28000 nM; in [6] (Alamar Blue) it was 10000 nM. For the same compound, the EC50 in experiment [7] turned out to be 790 nM; in experiment [8] it was 12000 nM; in experiment [9] (Pancreatic cancer RWP-1, Hexosaminidase assay (*)) it was 24000 nM; in [10] it was 150 nM; in experiment [11] (setting [20]), 5700 nM; in experiment [12], 2500 nM. Also, the EC50 amounted to 7000 nM in [13] (Lung cancer A549, Alamar Blue); 1100 nM in experiment [14] (setting [21]); 1300 nM in [15]; 4700 nM in experiment [16]; 25000 nM in experiment [17] (setting [22]).

On to `CC(C)C[C@H](NC(=O)[C@H]1N[C@@H](c2ccccc2)[C@@H]([N+](=O)[O-])[C@@H]1c1ccccc1)B(O)O` [Example 4, (R)-3-methyl-1-((2S,3R,4S,5S)-4-nitro-3,5-diphenylpyrrolidine-2-carboxamido)butylboronic acid], for which the EC50 in experiment [1] (setting [19]) is 790 nM; in experiment [2], 2000 nM; in experiment [3] it was 1300 nM; in experiment [4], 330 nM; in experiment [5], 8300 nM; in experiment [6] (Alamar Blue), 2100 nM. Further, the EC50 in experiment [7] is 2400 nM; in experiment [8] it was 4200 nM; in [9] (setting [23]), 3600 nM; in experiment [10], 270 nM; in experiment [11] (setting [20]) it was 3000 nM; in experiment [12], 1700 nM. Further, the EC50 in experiment [13] (Lung cancer A549, Alamar Blue) amounted to 4000 nM; in [14] (setting [21]), 610 nM; in experiment [15], 1300 nM; in [16], 1700 nM; in experiment [17] (setting [22]) it was 41000 nM.

In the case of `CC(C)C[C@H](NC(=O)[C@@H]1N[C@H](c2ccccc2)[C@@H]([N+](=O)[O-])[C@@H]1c1ccc(F)cc1)B(O)O` [Example 6, (R)-1-((2R,3R,4S,5R)-3-(4-fluorophenyl)-4-nitro-5-phenylpyrrolidine-2-carboxamido)-3-methylbutylboronic acid], the EC50 worked out at 12000 nM in experiment [1] (setting [24]); 15000 nM in [2]; 2200 nM in experiment [3]; 630 nM in experiment [4]; 54000 nM in experiment [5]; 21000 nM in experiment [6] (Hexosaminidase assay (*)). The EC50 in [7] was found to be 3300 nM; in experiment [8] it was 12000 nM; in experiment [9] (setting [23]) it was 4400 nM; in experiment [18] it was 14000 nM; in experiment [10], 1300 nM; in experiment [11] (setting [20]), 83000 nM. In addition, the EC50 was determined as 2000 nM in [12]; 12000 nM in experiment [13] (setting [25]); 13000 nM in experiment [14] (setting [26]); 3700 nM in [15]; 12000 nM in [16]; 7300 nM in [17] (setting [27]).

Turning to `CC(C)C[C@H](NC(=O)[C@@H]1N[C@H](c2ccccc2)[C@@H]([N+](=O)[O-])[C@@H]1c1cccs1)B(O)O` [Example 10, (R)-3-methyl-1-((2R,3R,4S,5R)-4-nitro-5-phenyl-3-(thiophen-2-yl)pyrrolidine-2-carboxamido)butylboronic acid], the EC50 is 1800 nM in experiment [1] (setting [24]); 1200 nM in experiment [2]; 640 nM in [3]; 170 nM in experiment [4]; 13000 nM in experiment [5]; 570 nM in [6] (Alamar Blue). Besides, the EC50 turned out to be 700 nM in experiment [7]; 500 nM in [8]; 1100 nM in experiment [9] (setting [23]); 3000 nM in experiment [18]; 60 nM in experiment [10]; 2400 nM in [11] (setting [20]). The EC50 came to 80 nM in experiment [12]; 2600 nM in [13] (setting [25]); 2300 nM in [14] (setting [26]); 780 nM in experiment [15]; 430 nM in experiment [16]; 1100 nM in [17] (setting [27]).

Regarding `CC(C)C[C@H](NC(=O)[C@@H]1N[C@H](c2ccccc2)[C@@H]([N+](=O)[O-])[C@@H]1c1ccco1)B(O)O` [Example 11, (R)-1-((2R,3R,4S,5R)-3-(furan-2-yl)-4-nitro-5-phenylpyrrolidine-2-carboxamido)-3-methylbutylboronic acid], the EC50 in [1] (setting [24]) was 1200 nM; in experiment [2] it was 1000 nM; in experiment [3], 280 nM; in [4], 52 nM; in [5], 3100 nM; in experiment [6] (Alamar Blue), 1300 nM. The EC50 turned out to be 280 nM in experiment [7]; 890 nM in experiment [8]; 420 nM in [9] (setting [23]); 580 nM in experiment [18]; 60 nM in experiment [10]; 850 nM in experiment [11] (Pancreatic cancer MIA PaCa-2, Hexosaminidase assay (*)). The EC50 in experiment [12] worked out at 40 nM; in [13] (setting [25]), 1300 nM; in experiment [14] (setting [26]), 1100 nM; in experiment [15] it was 290 nM; in experiment [16], 1000 nM; in experiment [17] (setting [27]), 840 nM.

With `CC(C)C[C@H](NC(=O)[C@@H]1N[C@H](c2ccc3ccccc3c2)[C@@H]([N+](=O)[O-])[C@@H]1c1ccccc1)B(O)O` [Example 12, (R)-3-methyl-1-((2R,3R,4S,5R)-5-(naphthalen-2-yl)-4-nitro-3-phenylpyrrolidine-2-carboxamido)butylboronic acid], the EC50 in experiment [1] (setting [19]) is 370 nM; in experiment [2], 2700 nM; in experiment [3] it was 440 nM; in experiment [4], 140 nM; in experiment [5] it was 11000 nM; in [6] (Hexosaminidase assay (*)), 7100 nM. The EC50 was 2000 nM in [8]; 310 nM in [10]; 1900 nM in experiment [11] (setting [20]); 800 nM in experiment [12]; 5800 nM in experiment [13] (Lung cancer A549, Alamar Blue); 560 nM in experiment [14] (setting [21]). The results for the EC50 in [15], in experiment [16] and in experiment [17] (setting [22]) were 570 nM, 2400 nM and 780 nM, respectively.

As to `CC(C)C[C@H](NC(=O)[C@@H]1CCCN1)B(O)O` [MG-319, {(R)-3-methyl-1-[(S)-pyrrolidine-2-carboxamido]butyl}boronic acid, reference compound], the 50% effective concentration (EC50) in experiment [1] (setting [19]) was 14000 nM; in experiment [2] it was 19000 nM; in [3], 1800 nM; in [4] it was 4500 nM; in [5], 52000 nM; in experiment [6] (Alamar Blue), 25000 nM. Besides, the EC50 is 24000 nM in experiment [7]; 25000 nM in experiment [8]; 4800 nM in [10]; 22000 nM in [11] (setting [20]); 4700 nM in experiment [12]; 8800 nM in experiment [14] (setting [21]). Also, the EC50 in [15] was 41000 nM; in [16] it was 19000 nM; in experiment [17] (setting [22]), 47000 nM.
